Results reported in ChEMBL document CHEMBL1255428, “Characterization of UDP-glucose dehydrogenase and UDP-glucose pyrophosphorylase mutants of Proteus mirabilis: defectiveness in polymyxin B resistance, swarming, and virulence” (2010).
Active and inactive are the calls of the source. The rule behind the calls is not given here.

What was measured:
Proteus mirabilis [1] = assay: Antimicrobial activity against Proteus mirabilis dG1 knockout after 16 to 18 hrs by broth micro dilution assay; assay type: functional
Proteus mirabilis [2] = assay: Antimicrobial activity against Proteus mirabilis dU2 knockout mutant after 16 to 18 hrs by broth micro dilution assay; assay type: functional
Proteus mirabilis [3] = assay: Induction of Ugd expression in wild type Proteus mirabilis dA10c RppA-complemented strain at 1 ug/ml by real-time RT-PCR analysis; assay type: functional, organism-based
Proteus mirabilis [4] = assay: Induction of Ugd expression in wild type Proteus mirabilis N2 at 1 ug/ml by real-time RT-PCR analysis; assay type: functional, organism-based
Proteus mirabilis [5] = assay: Induction of Ugd expression in Proteus mirabilis dA10 rppA knockout mutant at 1 ug/ml by real-time RT-PCR analysis; assay type: functional, organism-based
Proteus mirabilis [6] = assay: Antimicrobial activity against Proteus mirabilis dG1 knockout mutant transformed with pACYC184-galU after 16 to 18 hrs by broth micro dilution assay; assay type: functional
Proteus mirabilis [7] = assay: Antimicrobial activity against Proteus mirabilis dU2 knockout mutant transformed with pACYC184-ugd after 16 to 18 hrs by broth micro dilution assay; assay type: functional
Proteus mirabilis [8] = assay: Antimicrobial activity against wild type Proteus mirabilis N2 after 16 to 18 hrs by broth micro dilution assay; assay type: functional

| Molecule | MIC (Proteus mirabilis [1]) | MIC (Proteus mirabilis [2]) | Activity (Proteus mirabilis [3]) | Activity (Proteus mirabilis [4]) | Activity (Proteus mirabilis [5]) | MIC (Proteus mirabilis [6]) | MIC (Proteus mirabilis [7]) | MIC (Proteus mirabilis [8]) |
| --- | --- | --- | --- | --- | --- | --- | --- | --- |
| POLYMYXIN B | 4 µg/mL | 2 µg/mL | inactive | Active | Active |  |  |  |
| CCCCCCCCCCCCOS(=O)(=O)[O-].[Na+] [SODIUM LAURYL SULFATE] | 500 µg/mL | 500 µg/mL |  |  |  | 2000 µg/mL | 2000 µg/mL | 2000 µg/mL |
